Source: US12331088B2, “Method for the treatment of a relapsing-remitting condition” (Revolo Biotherapeutics Limited, priority 2017, dated 2025)
Ends that are not written are not given here.

Columns and labels:
[1] = test system: mice infected with H3N2 influenza (A/x31) and challenged with poly I:C; assay: Model of ARDS associated to influenza A virus (IAV) infection with Poly I:C challenge, BAL cells, cytokines, lung viral titre; type: in vivo; settings: for Lymphocyte infiltration / Macrophage infiltration / Neutrophil infiltration: SEQ ID NO:1 80-800 μg/Kg iv q.d., Dex 10 mg/kg ip q.d.; for BAL Lymphocytes / BAL Macrophages / BAL Neutrophils: IAV/Poly I:C, 48 hrs after Poly I:C
Method: Mice were infected intranasally with a H3N2 strain of influenza (A/x31; 1×10^3 pfu). Three days after infection (time of peak viral load in the lung), animals received a dose of the viral mimetic polyinosinic-polycytidylic acid (poly I:C) or vehicle (PBS). Initially, dose response and time course studies with Poly I:C were done to establish conditions to show exacerbated lung inflammation after viral challenge (30 μg/animal and 48 hrs after Poly I:C challenge, respectively). SEQ ID NO:1 (80-800 μg/Kg) or vehicle were administered q.d. intravenously, 15 min before Poly I:C and 24 hrs later. Positive control Dexamethasone (Dex) was administered q.d. intraperitoneally (10 mg/kg) 1 hr before poly I:C challenge and 24 hrs later. 48 hrs after Poly I:C challenge, bronchoalveolar lavage (BAL) fluid was collected for differential cell counts and to measure cytokines using a multiplex immunoassay. Lung tissue was also collected to determine the viral titre.

[2] = test system: ovalbumin sensitised BALB/c mice; settings: mouse, in vivo
[3] = test system: HDM-induced pulmonary inflammation in Balb/C mice; assay: House dust mite (HDM)-induced pulmonary inflammation, 3 week i.n. HDM sensitisation model, BAL cell influx and cytokines; type: in vivo
Method: The objective of the study was to investigate the inhibitory effects of 3 different concentrations of the peptides in a saline solution on house dust mite (HDM)-induced pulmonary inflammation in Balb/C mice using a 3 week intranasal (i.n.) HDM sensitisation model. Results are shown for SEQ ID NO: 1. This study also looked at time point effects of SEQ ID NO: 1; in addition to 7 day post HDM challenge, a further time point, 4 h post a second HDM challenge (14 days after the first HDM challenge), was investigated to assess the effects of SEQ ID NO: 1 on remission of the allergic response.
A 3 week sensitisation and challenge model was applied where n=90 female Balb/C mice of approximately 6-8 weeks of age, approximately 20-25 g at start of study were used.
Following 11 days' acclimatisation all mice received 25 μg (total protein) HDM delivered i.n. 5 days/week for 3 weeks. HDM sensitisation was carried out each day of dosing and all intranasal dosing was performed where the mice were lightly anaesthetised using isoflurane.
Two weeks after the final HDM sensitisation dose all mice received a single 50 μL i.n. dose of a saline solution of the peptide or saline (0.9% w/v Sodium Chloride) vehicle solution. For SEQ ID NO: 1, dose solutions were 0.02 μg/kg, 0.2 μg/kg and 2 μg/kg. 15 minutes post peptide or saline vehicle dose all mice received a single 50 uL challenge administered i.n. of saline (0.9% w/v Sodium Chloride) or 100 μg HDM.
Some groups of animals received a second 50 μL i.n. administered dose of either saline or HDM 100 μg dose four weeks post sensitisation. Animals were then euthanised 4 hrs post second challenge (corresponding to 14 days post dosing).
The lungs were lavaged via the trachea with 1 mL of BAL (bronchoalveolar lavage) fluid. Samples were placed on wet ice (4° C.) and a differential cell count using a Sysmex XT2000i vet cell analyser was performed before the BAL sample was centrifuged at 1300 rcf for 7 min. A 200 μL BAL supernatant sample was put in a polypropylene U bottom 96 well plate and frozen at −20° C. for subsequent cytokine analysis using a standard MSD protocol.
Data analysis was performed using Graphpad PRISM 6. The statistical tests applied to determine statistical significance were analysis of variance (ANOVA) followed by a post-hoc test or an unpaired T-test.

[4] = test system: THP-1 differentiated macrophages; assay: IL-10 release from LPS stimulated macrophages (alphaLISA); type: cell-based, human; settings: 1 nM; top LPS doses 1-10 μg/mL; 6 hours after LPS stimulation
Method: THP-1 monocytic human cells were differentiated into macrophages with 50 nM phorbol myristate acetate for 48 hrs on a 96 well plate (100K cells/well).
Macrophages were stimulated with increasing concentrations of bacterial lipopolysaccharide (LPS 10^−6-10 μg/mL) in the presence or absence of SEQ ID NO:1 (1 nM). 30 μL of cell media was sampled at 6 hours after LPS stimulation and an IL-10 alphaLISA was run to measure the release of IL-10.

[5] = test system: dendritic cells from CD14+ monocytes of healthy donors; type: cell-based, human; settings: 400 ng/mL + LPS/IFNγ
[6] = test system: animal model of allergic airway inflammation; settings: disclosed in WO2009/106819; cited from earlier work
[7] = 48 hrs after Poly I:C challenge
[8] = 2 μg/kg i.n. single dose, 7 day time point, compared to saline/HDM
[9] = 2 μg/kg i.n. single dose, 14 day time point, 4 hrs post second HDM challenge, compared to saline/HDM
[10] = 2 μg/kg i.n., 14 days time point, compared to saline/HDM
[11] = 48 hrs after Poly I:C challenge, multiplex immunoassay

Compound: C[C@@H]1C[C@H]2[C@@H]3CCC4=CC(=O)C=C[C@]4(C)[C@@]3(F)[C@@H](O)C[C@]2(C)[C@@]1(O)C(=O)CO [Dex, Dexamethasone, reference compound]
- Lymphocyte infiltration [1, 7]: no effect
- Macrophage infiltration [1, 7]: no effect
- Neutrophil infiltration [1, 7]: no effect
- BAL Lymphocytes ([1]; 10 mg/kg ip): 9.4 ± 0.7 ×10^4/mL
- BAL Macrophages ([1]; 10 mg/kg ip): 40.90 ± 0.2 ×10^4/mL
- BAL Neutrophils ([1]; 10 mg/kg ip): 35.7 ± 2.6 ×10^4/mL

Compound: DGSVVVNKVSEL-NH2 [SEQ ID NO:3]
- BAL eosinophil number [2]: significantly reduced
- BAL total number of cells [2]: significantly reduced

Compound: DGSVVVNKVSELPAGHGLNVNTLSYGDLAAD-OH [SEQ ID NO:1]
- BAL level of eosinophils [3, 8]: decreased level of neutrophils and eosinophils compared to saline/HDM although not statistically significant
- BAL level of neutrophils [3, 8]: decreased level of neutrophils and eosinophils compared to saline/HDM although not statistically significant
- BAL level of eosinophils [3, 9]: significantly decreased level
- BAL level of lymphocytes [3, 9]: significantly decreased level
- BAL level of neutrophils [3, 9]: significantly decreased level
- BAL level of IL-4 [3, 10]: significant inhibition
- BAL level of IL-5 [3, 10]: significant inhibition
- BAL level of IL-13 [3, 10]: significant inhibition
- BAL release of anti inflammatory cytokine IL-10 ([3]; 0.02, 0.2, 2 μg/kg i.n., 7 days time point, compared to saline/HDM): significant dose response release
- BAL infiltrated macrophages ([3]; SEQ ID NO:1 treated groups (0.02-2 μg/kg i.n.), 7 day time point): trend to an increase of infiltrated macrophages
- Release of IL-10 [4]: potentiated the release of IL-10
- IL-10 gene expression (LPS/IFNγ suppression) [5]: significantly attenuate the LPS/IFNγ suppression of the IL-10 gene
- Lung viral titre [1, 7]: no significant effect
- Lymphocyte infiltration [1, 7]: significantly and dose dependently reduced
- Macrophage infiltration [1, 7]: significantly and dose dependently reduced
- Neutrophil infiltration [1, 7]: significantly and dose dependently reduced
- BAL G-CSF [1, 11]: significant suppression
- BAL GM-CSF [1, 11]: significant suppression
- BAL IFN-γ [1, 11]: significant suppression
- BAL IL-1γ [1, 11]: significant suppression
- BAL IL-6 [1, 11]: significant suppression
- BAL IL-10 [1, 11]: significant suppression
- BAL IL-17 [1, 11]: significant suppression
- BAL KC/IL-8 [1, 11]: significant suppression
- BAL MCP-1 [1, 11]: significant suppression
- BAL MIP-1α [1, 11]: significant suppression
- BAL MIP-3α [1, 11]: significant suppression
- BAL TNF-α [1, 11]: significant suppression
- BAL Lymphocytes ([1]; 80μ/kg iv): 7.4 ± 0.5 ×10^4/mL
- BAL Macrophages ([1]; 80μ/kg iv): 40.3 ± 1.6 ×10^4/mL
- BAL Neutrophils ([1]; 80μ/kg iv): 30 ± 2.2 ×10^4/mL
- BAL Lymphocytes ([1]; 800μ/kg iv): 4.7 ± 0.5 ×10^4/mL
- BAL Macrophages ([1]; 800μ/kg iv): 24.1 ± 1.6 ×10^4/mL
- BAL Neutrophils ([1]; 800μ/kg iv): 15.3 ± 2.4 ×10^4/mL
- Circulating levels of peptide [2]: no longer detectable
- Intensity of the inflammatory response (BAL total cells, eosinophils) [2]: significantly reduced
- Recruitment of eosinophils after OVA re-challenge [2]: efficient in inhibiting the recruitment of eosinophils
- Recruitment of eosinophils [6]: significantly reduce the recruitment of eosinophils
